Measurements taken from patent US20240109865A1, “INDAZOLE COMPOUNDS AS KINASE INHIBITORS” (TYRA BIOSCIENCES, INC., priority 2020, published 2024).
One block for each compound: values may come before it.

Assays:
[1] = biological target: FGFR3-BAIAP2L1 Ba/F3 cells (Homo sapiens, UniProt P22607); assay: Ba/F3 cell viability assay (CellTiter-Glo 2.0), FGFR3-BAIAP2L1 Ba/F3; assay type: cell-based; settings: for Ba/F3 FGFR1/FGFR3 Selectivity: FGFR3 > FGFR1 selectivity ratio in Ba/F3 FGFR fusion cell based assays; for IC50: read-out: Ba/F3 Cells FGFR3 (IC50 nM), FGFR3-BAIAP2L1 Ba/F3 cells, 48 hours, Cell Titer Glo 2.0
How it was run: (§1)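 IL3-independent Ba/F3 lines driven by FGFR1-BCR or FGFR3-BAIAP2L1 fusions, in RPMI1640/10% FBS. 9-dose 10-fold series from 30 μM, triplicate, 48 h at 37 °C; viability by CellTiter-Glo 2.0 ATP luminescence relative to DMSO control, IC50 from 4-parameter sigmoidal fit.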

[2] = biological target: FGFR1-BCR Ba/F3 cells (Homo sapiens, UniProt P11362); assay: Ba/F3 cell viability assay (CellTiter-Glo 2.0), FGFR1-BCR Ba/F3; assay type: cell-based; settings: read-out: Ba/F3 Cells FGFR1 (IC50 nM), 48 hours, Cell Titer Glo 2.0
How it was run: as §1

[3] = tested on: RT112/84 cells (FGFR3-fusion); assay: RT112/84 cancer cell line cell viability assay (CellTiter-Glo 2.0); assay type: cell-based; settings: Homo sapiens, 72 hours, Cell Titer Glo 2.0
Source text: (§2) Experimental Purpose: To detect the change of intracellular ATP by Cell Titer-Glo® and to evaluate the inhibitory effect of the compounds on cancer cell lines by determining the in vitro IC50 value of the compounds.
(§3) Cell Titer-Glo® 2.0 Luminescent cell viability assay reagent was purchased from Promega (Madison, WI). RT112/84 and KG-1 cell lines were purchased from American Type Culture Collection (Manassas, VA). UM-UC-14 cell line was purchased from Sigma (St. Louis, MO). RT112/84, UM-UC-14, and KG-1 cells were cultured in RPMI1640 media supplemented with 10% fetal bovine serum. Cultures were maintained at 37° C. in a humidified atmosphere of 5% C02 and 95% air.
(§4) Cell Viability Assay Procedure: Cells were plated in 96-well clear bottom/white plates (Corning #3903) at 10,000 cells/well in 100 μl of media, incubated overnight. The next day, test compound DMSO stock solutions were made at 10 mM and 2 μM final concentration. Compounds were then added to cells in a 9-dose, 10-fold dilution series starting at 30 μM with an HP 300e Digital Dispenser (each dose was applied in triplicate). DMSO was backfilled to each well up to 301 nL total volume of test compound+DMSO, and a total of 301 nL DMSO was added to a control/no test compound well in triplicate. The cells in cell culture plates were incubated with the compounds at 37° C. and 5% C02 for 72 hours. Then 50 μl of Cell Titer Glo 2.0 reagent was added to each well of the cell culture plates. The contents were covered from light and mixed on an orbital shaker at room temperature for 10 min. Luminescence was recorded by a Synergy H1 Microplate Reader (Biotek, Winooski, VT). Cells were assessed as a percentage of DMSO only treated control cells. Curves were plotted and IC50 values were calculated using the GraphPad Prism 8 program based on a sigmoidal dose-response equation (4 parameter).

[4] = tested on: KG-1 cells (FGFR1-fusion); assay: KG-1 cancer cell line cell viability assay (CellTiter-Glo 2.0); assay type: cell-based; settings: Homo sapiens, 72 hours, Cell Titer Glo 2.0
Source text: as §2, §3, §4

[5] = biological target: FGFR1 (Homo sapiens (Human), UniProt P11362); assay: Kinase assay, binding constants (Kd), kinase-tagged T7 phage, qPCR
How it was run: (§5)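 Competition binding: kinase-tagged T7 phage lysates mixed with immobilized biotinylated ligand on streptavidin beads plus compound (11-point 3-fold dilution series, 0.9% DMSO final). Bound kinase eluted with free ligand and quantified by qPCR. Kd from Hill equation fit, slope fixed at −1.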

[6] = biological target: FGFR2 (Homo sapiens (Human), UniProt P21802); assay: as above
How it was run: as §5

[7] = biological target: FGFR3 (Homo sapiens (Human), UniProt P22607); assay: as above
How it was run: as §5

[8] = biological target: FGFR3 (V555M) (Homo sapiens (Human), UniProt P22607, V555M); assay: as above; settings: V555M mutant
How it was run: as §5

[9] = biological target: FGFR4 (Homo sapiens (Human), UniProt P22455); assay: as above
How it was run: as §5

Sequence of FGFR4 (P22455 22-802): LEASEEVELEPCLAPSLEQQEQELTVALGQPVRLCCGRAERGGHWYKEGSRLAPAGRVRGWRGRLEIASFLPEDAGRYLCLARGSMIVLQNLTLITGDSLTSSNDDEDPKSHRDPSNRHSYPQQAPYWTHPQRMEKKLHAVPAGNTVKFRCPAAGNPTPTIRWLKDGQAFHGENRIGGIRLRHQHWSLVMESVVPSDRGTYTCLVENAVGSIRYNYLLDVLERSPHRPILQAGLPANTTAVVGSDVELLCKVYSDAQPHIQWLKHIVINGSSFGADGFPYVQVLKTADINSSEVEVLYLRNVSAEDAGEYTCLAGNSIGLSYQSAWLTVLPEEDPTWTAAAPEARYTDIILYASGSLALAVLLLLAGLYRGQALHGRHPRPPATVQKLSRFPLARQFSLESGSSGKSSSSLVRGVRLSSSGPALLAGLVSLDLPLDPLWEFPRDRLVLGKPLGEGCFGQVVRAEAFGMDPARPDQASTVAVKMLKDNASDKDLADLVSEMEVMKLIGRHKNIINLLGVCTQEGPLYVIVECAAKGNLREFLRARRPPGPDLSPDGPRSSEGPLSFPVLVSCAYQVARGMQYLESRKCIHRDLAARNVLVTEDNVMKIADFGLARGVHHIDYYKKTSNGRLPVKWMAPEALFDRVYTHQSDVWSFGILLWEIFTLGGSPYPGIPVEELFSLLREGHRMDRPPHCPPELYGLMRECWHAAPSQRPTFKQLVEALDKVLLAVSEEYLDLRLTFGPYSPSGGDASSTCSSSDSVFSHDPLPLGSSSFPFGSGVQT
Sequence of FGFR1-BCR Ba/F3 cells (P11362 22-822 limits assumed, change not shown): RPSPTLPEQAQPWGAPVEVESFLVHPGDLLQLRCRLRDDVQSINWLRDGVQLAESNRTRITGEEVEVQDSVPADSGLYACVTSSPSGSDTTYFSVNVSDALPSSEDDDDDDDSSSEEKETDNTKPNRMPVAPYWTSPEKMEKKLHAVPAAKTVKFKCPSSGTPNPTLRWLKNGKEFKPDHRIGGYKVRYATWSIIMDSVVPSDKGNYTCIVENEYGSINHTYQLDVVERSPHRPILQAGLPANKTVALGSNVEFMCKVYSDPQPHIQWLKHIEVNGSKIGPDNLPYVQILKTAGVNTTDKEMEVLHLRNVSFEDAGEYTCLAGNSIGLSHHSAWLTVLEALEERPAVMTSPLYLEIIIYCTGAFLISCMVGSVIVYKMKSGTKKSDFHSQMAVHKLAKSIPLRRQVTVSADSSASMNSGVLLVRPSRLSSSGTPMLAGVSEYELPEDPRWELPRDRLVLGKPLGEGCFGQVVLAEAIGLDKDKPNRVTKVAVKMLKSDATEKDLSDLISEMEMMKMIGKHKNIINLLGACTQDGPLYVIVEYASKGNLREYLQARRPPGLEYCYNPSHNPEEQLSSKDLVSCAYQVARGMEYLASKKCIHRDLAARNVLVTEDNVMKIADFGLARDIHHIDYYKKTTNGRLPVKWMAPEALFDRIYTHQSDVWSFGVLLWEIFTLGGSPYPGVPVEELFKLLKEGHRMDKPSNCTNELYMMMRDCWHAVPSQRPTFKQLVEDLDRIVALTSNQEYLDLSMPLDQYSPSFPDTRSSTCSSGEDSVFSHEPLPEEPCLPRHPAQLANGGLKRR
Sequence of FGFR1 (P11362 22-822): as the sequence (P11362 22-822 limits assumed, change not shown) above
Sequence of FGFR3 (V555M) (P22607 23-806 V555M): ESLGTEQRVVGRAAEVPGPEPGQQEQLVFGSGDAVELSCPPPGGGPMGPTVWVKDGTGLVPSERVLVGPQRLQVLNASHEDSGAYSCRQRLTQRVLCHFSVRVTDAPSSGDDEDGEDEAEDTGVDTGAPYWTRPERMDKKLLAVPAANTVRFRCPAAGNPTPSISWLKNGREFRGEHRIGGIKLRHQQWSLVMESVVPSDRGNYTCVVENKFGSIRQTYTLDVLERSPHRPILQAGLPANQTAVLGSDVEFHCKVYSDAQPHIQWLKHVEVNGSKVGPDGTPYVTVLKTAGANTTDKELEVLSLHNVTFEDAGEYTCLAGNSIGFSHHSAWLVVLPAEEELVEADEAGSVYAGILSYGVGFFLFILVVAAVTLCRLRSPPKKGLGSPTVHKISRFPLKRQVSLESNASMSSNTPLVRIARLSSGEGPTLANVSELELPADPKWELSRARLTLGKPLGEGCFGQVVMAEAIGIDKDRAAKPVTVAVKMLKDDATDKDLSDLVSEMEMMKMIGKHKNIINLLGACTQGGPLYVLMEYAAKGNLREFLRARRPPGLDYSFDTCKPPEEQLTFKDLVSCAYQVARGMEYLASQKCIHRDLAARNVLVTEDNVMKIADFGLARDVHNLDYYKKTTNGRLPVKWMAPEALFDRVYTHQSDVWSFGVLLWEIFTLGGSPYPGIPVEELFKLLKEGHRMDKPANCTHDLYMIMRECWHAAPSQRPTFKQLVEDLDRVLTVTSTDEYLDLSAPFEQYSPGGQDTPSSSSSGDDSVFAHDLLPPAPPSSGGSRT
Sequence of FGFR2 (P21802 22-821): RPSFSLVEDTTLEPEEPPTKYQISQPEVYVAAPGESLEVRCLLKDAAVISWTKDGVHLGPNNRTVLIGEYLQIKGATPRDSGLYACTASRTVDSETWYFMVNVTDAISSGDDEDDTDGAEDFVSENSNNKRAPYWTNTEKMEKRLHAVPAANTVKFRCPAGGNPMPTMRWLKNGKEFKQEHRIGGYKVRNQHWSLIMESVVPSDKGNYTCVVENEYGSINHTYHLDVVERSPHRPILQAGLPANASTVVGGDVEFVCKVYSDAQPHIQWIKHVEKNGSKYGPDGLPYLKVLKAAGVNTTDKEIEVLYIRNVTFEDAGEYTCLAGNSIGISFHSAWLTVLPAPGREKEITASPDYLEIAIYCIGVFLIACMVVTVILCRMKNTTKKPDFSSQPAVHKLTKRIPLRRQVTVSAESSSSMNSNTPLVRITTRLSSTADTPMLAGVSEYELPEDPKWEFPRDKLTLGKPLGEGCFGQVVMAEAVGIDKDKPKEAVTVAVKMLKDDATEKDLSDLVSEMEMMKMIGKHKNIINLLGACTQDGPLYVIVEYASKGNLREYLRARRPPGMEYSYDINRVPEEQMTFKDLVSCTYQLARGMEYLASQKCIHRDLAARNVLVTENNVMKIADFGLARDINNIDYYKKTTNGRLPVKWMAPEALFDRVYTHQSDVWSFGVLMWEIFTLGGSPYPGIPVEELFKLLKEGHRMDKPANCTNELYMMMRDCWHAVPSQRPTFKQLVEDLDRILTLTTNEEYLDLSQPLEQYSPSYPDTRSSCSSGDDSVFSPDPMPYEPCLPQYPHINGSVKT
Sequence of FGFR3 (P22607 23-806): as the sequence (P22607 23-806 V555M) above, with M533V counted along it
Sequence of FGFR3-BAIAP2L1 Ba/F3 cells (P22607 23-806 limits assumed, change not shown): as the sequence (P22607 23-806 V555M) above, with M533V counted along it

Compound: C[C@@H](Oc1ccc2[nH]nc(-c3ccc(N4CCC5(CCC(=O)N5)CC4)nc3)c2c1)c1c(Cl)cncc1Cl [Example 29, 8-[5-[5-[(1R)-1-(3,5-dichloro-4-pyridyl)ethoxy]-1H-indazol-3-yl]-2-pyridyl]-1,8-diazaspiro[4.5]decan-2-one]
Ba/F3 FGFR1/FGFR3 Selectivity [1]: 19
IC50 [1]: 1 to 20 nM
IC50 [2]: 100 to 300 nM
IC50 [3]: 1 to 20 nM
IC50 [4]: 20 to 100 nM
Kd [5]: 1 to 20 nM
Kd [6]: 1 to 20 nM
Kd [7]: 1 to 20 nM
Kd [8]: 1 to 20 nM
Kd [9]: 1 to 20 nM

Compound: C[C@@H](Oc1ccc2[nH]nc(-c3ccc(N4CCNC(=O)CC4)nc3)c2c1)c1c(Cl)cncc1Cl [Example 30, 1-[5-[5-[(1R)-1-(3,5-dichloro-4-pyridyl)ethoxy]-1H-indazol-3-yl]-2-pyridyl]-1,4-diazepan-5-one]
Ba/F3 FGFR1/FGFR3 Selectivity [1]: 18
IC50 [1]: 1 to 20 nM
IC50 [2]: 100 to 300 nM
IC50 [3]: 1 to 20 nM
IC50 [4]: 20 to 100 nM
Kd [5]: 1 to 20 nM
Kd [6]: 1 to 20 nM
Kd [7]: 1 to 20 nM
Kd [8]: 1 to 20 nM
Kd [9]: 1 to 20 nM

IC50 [3]: 1 to 20 nM
IC50 [4]: 20 to 100 nM
Kd [5]: 1 to 20 nM
Kd [6]: 1 to 20 nM
Kd [7]: 1 to 20 nM
Kd [8]: 1 to 20 nM
Kd [9]: 1 to 20 nM
Compound: CC(C)N1CC2(CN(c3ccc(-c4n[nH]c5ccc(O[C@H](C)c6c(Cl)cncc6Cl)cc45)cn3)C2)C1 [Example 31, 5-[(1R)-1-(3,5-dichloro-4-pyridyl)ethoxy]-3-[6-(2-isopropyl-2,6-diazaspiro[3.3]heptan-6-yl)-3-pyridyl]-1H-indazole]

Compound: C[C@@H](Oc1ccc2[nH]nc(-c3cnc(N4CCC5(CCC(=O)N5)CC4)c(F)c3)c2c1)c1c(Cl)cncc1Cl [Example 42, 8-[5-[5-[(1R)-1-(3,5-dichloro-4-pyridyl)ethoxy]-1H-indazol-3-yl]-3-fluoro-2-pyridyl]-1,8-diazaspiro[4.5]decan-2-one]
Ba/F3 FGFR1/FGFR3 Selectivity [1]: 17
IC50 [1]: 1 to 20 nM
IC50 [2]: 100 to 300 nM
IC50 [3]: 1 to 20 nM
IC50 [4]: 20 to 100 nM
Kd [5]: 1 to 20 nM
Kd [6]: 20 to 100 nM
Kd [7]: 1 to 20 nM
Kd [8]: 1 to 20 nM
Kd [9]: 1 to 20 nM

Compound: C[C@@H](Oc1ccc2[nH]nc(-c3ccc(N4CC5(CCN(S(C)(=O)=O)CC5)C4)nc3)c2c1)c1c(Cl)cncc1Cl [Example 111, 5-[(1R)-1-(3,5-dichloro-4-pyridyl)ethoxy]-3-[6-(7-methylsulfonyl-2,7-diazaspiro[3.5]nonan-2-yl)-3-pyridyl]-1H-indazole]
Ba/F3 FGFR1/FGFR3 Selectivity [1]: 15
IC50 [1]: 1 to 20 nM
IC50 [2]: 100 to 300 nM
IC50 [3]: 1 to 20 nM
Kd [5]: 20 to 100 nM
Kd [6]: 20 to 100 nM
Kd [7]: 1 to 20 nM
Kd [8]: 1 to 20 nM
Kd [9]: 1 to 20 nM

Compound: C[C@@H](Oc1ccc2[nH]nc(-c3ccc(N4CC5(C4)CS(=O)(=O)C5)nc3)c2c1)c1c(Cl)cncc1Cl [Example 112, 6-[5-[5-[(1R)-1-(3,5-dichloro-4-pyridyl)ethoxy]-1H-indazol-3-yl]-2-pyridyl]-2λ^6-thia-6-azaspiro[3.3]heptane 2,2-dioxide]
Ba/F3 FGFR1/FGFR3 Selectivity [1]: 12
IC50 [1]: 1 to 20 nM
IC50 [2]: 100 to 300 nM
IC50 [3]: 1 to 20 nM
Kd [5]: 1 to 20 nM
Kd [6]: 20 to 100 nM
Kd [7]: 1 to 20 nM
Kd [8]: 1 to 20 nM
Kd [9]: 1 to 20 nM

Compound: C[C@@H](Oc1ccc2[nH]nc(-c3ccc(N4CC5(CCS(=O)(=O)CC5)C4)nc3)c2c1)c1c(Cl)cncc1Cl [Example 113, 2-[5-[5-[(1R)-1-(3,5-dichloro-4-pyridyl)ethoxy]-1H-indazol-3-yl]-2-pyridyl]-7λ^6-thia-2-azaspiro[3.5]nonane 7,7-dioxide]
Ba/F3 FGFR1/FGFR3 Selectivity [1]: 11
IC50 [1]: 1 to 20 nM
IC50 [2]: 20 to 100 nM
IC50 [3]: 1 to 20 nM
Kd [5]: 1 to 20 nM
Kd [6]: 1 to 20 nM
Kd [7]: 1 to 20 nM
Kd [8]: 1 to 20 nM
Kd [9]: 1 to 20 nM

Compound: C[C@H](Oc1ccc2[nH]nc(-c3ccc(N4CC5(C4)CN(S(C)(=O)=O)C5)nc3)c2c1)c1c(Cl)cncc1Cl [Example 160, 5-[(1S)-1-(3,5-dichloro-4-pyridyl)ethoxy]-3-[6-(2-methylsulfonyl-2,6-diazaspiro[3.3]heptan-6-yl)-3-pyridyl]-1H-indazole]
Ba/F3 FGFR1/FGFR3 Selectivity [1]: 17
IC50 [1]: 100 to 300 nM
IC50 [2]: > 300 nM
Kd [5]: > 300 nM
Kd [6]: 100 to 300 nM
Kd [7]: 20 to 100 nM
Kd [8]: 1 to 20 nM
Kd [9]: 100 to 300 nM

Compound: C[C@@H](Oc1ccc2[nH]nc(-c3ccc(N4CC5(CCCN(S(C)(=O)=O)C5)C4)nc3)c2c1)c1c(Cl)cncc1Cl [Example 162, 5-[(1R)-1-(3,5-dichloro-4-pyridyl)ethoxy]-3-[6-(8-methylsulfonyl-2,8-diazaspiro[3.5]nonan-2-yl)-3-pyridyl]-1H-indazole]
Ba/F3 FGFR1/FGFR3 Selectivity [1]: 12
IC50 [1]: 1 to 20 nM
IC50 [2]: 100 to 300 nM
Kd [5]: 20 to 100 nM
Kd [6]: 1 to 20 nM
Kd [7]: 1 to 20 nM
Kd [8]: 1 to 20 nM
Kd [9]: 1 to 20 nM

Compound: C[C@@H](Oc1ccc2[nH]nc(-c3ccc(N4CC5(CCN(S(C)(=O)=O)C5)C4)nc3)c2c1)c1c(Cl)cncc1Cl [Example 163, 5-[(1R)-1-(3,5-dichloro-4-pyridyl)ethoxy]-3-[6-(7-methylsulfonyl-2,7-diazaspiro[3.4]octan-2-yl)-3-pyridyl]-1H-indazole]
Ba/F3 FGFR1/FGFR3 Selectivity [1]: 17
IC50 [1]: 1 to 20 nM
IC50 [2]: 20 to 100 nM
Kd [5]: 1 to 20 nM
Kd [6]: 1 to 20 nM
Kd [7]: 1 to 20 nM
Kd [8]: 1 to 20 nM
Kd [9]: 1 to 20 nM

Compound: COC(=O)N1CCCC2(C1)CN(c1ccc(-c3n[nH]c4ccc(O[C@H](C)c5c(Cl)cncc5Cl)cc34)cn1)C2 [Example 165, methyl 2-[5-[5-[(1R)-1-(3,5-dichloro-4-pyridyl)ethoxy]-1H-indazol-3-yl]-2-pyridyl]-2,8-diazaspiro[3.5]nonane-8-carboxylate]
Ba/F3 FGFR1/FGFR3 Selectivity [1]: 16
IC50 [1]: 1 to 20 nM
IC50 [2]: 100 to 300 nM
Kd [5]: 20 to 100 nM
Kd [6]: 1 to 20 nM
Kd [7]: 1 to 20 nM
Kd [8]: 1 to 20 nM
Kd [9]: 1 to 20 nM

Compound: C[C@@H](Oc1ccc2[nH]nc(-c3cnn(C4CCNCC4)c3)c2c1)c1cc(F)cc(F)c1 [Example 166, 5-[(1R)-1-(3,5-difluorophenyl)ethoxy]-3-[1-(4-piperidyl)pyrazol-4-yl]-1H-indazole]
Ba/F3 FGFR1/FGFR3 Selectivity [1]: 6
IC50 [1]: 100 to 300 nM
IC50 [2]: > 300 nM
Kd [5]: 20 to 100 nM
Kd [6]: 1 to 20 nM
Kd [7]: 1 to 20 nM
Kd [8]: 1 to 20 nM
Kd [9]: > 300 nM

Compound: C[C@@H](Oc1ccc2[nH]nc(-c3cnn(C4CCN(C5COC5)CC4)c3)c2c1)c1cc(F)cc(F)c1 [Example 168, 5-[(1R)-1-(3,5-difluorophenyl)ethoxy]-3-[1-[1-(oxetan-3-yl)-4-piperidyl]pyrazol-4-yl]-1H-indazole]
Ba/F3 FGFR1/FGFR3 Selectivity [1]: 8
IC50 [1]: 20 to 100 nM
IC50 [2]: > 300 nM
Kd [5]: 100 to 300 nM
Kd [6]: 20 to 100 nM
Kd [7]: 1 to 20 nM
Kd [8]: 1 to 20 nM
Kd [9]: > 300 nM

Compound: C[C@@H](Oc1ccc2[nH]nc(-c3ccc(N4CC5(C4)CN(S(C)(=O)=O)C5)nc3)c2c1)c1c(Cl)cccc1Cl [Example 170, 5-[(1R)-1-(2,6-dichlorophenyl)ethoxy]-3-[6-(2-methylsulfonyl-2,6-diazaspiro[3.3]heptan-6-yl)-3-pyridyl]-1H-indazole]
Ba/F3 FGFR1/FGFR3 Selectivity [1]: 14
IC50 [1]: 20 to 100 nM
IC50 [2]: > 300 nM
Kd [5]: 100 to 300 nM
Kd [6]: 20 to 100 nM
Kd [7]: 1 to 20 nM
Kd [8]: 1 to 20 nM
Kd [9]: 100 to 300 nM
